This is an account of results in PubChem BioAssay (NCI).

Among the test systems are DLD-1 colon; DMS 114 small cell lung; DMS 273 small cell lung; LXFL 529 NSCLC; M19-MEL melanoma; RXF-631 renal; SNB-78 CNS; XF 498 CNS; MDA-N; P388 leukemia; P388/ADR leukemia.
Experiment in all cases: NCI tumour cell line growth inhibition, 48 h

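Compound exposure: 48 hours, 5 concentrations, 96-well plates. Definition used: TGI = concentration required for complete inhibition of growth.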

As to `CCCCCCCC1(c2ccc(N)cc2)CCC(=O)NC1=O` (centres undefined), the TGI is greater than 100 µM with DLD-1 colon; 85.3 µM in the assay on DMS 114 small cell lung; 73.8 µM in the assay on DMS 273 small cell lung; greater than 100 µM in the assay with LXFL 529 NSCLC; greater than 100 µM in the assay with M19-MEL melanoma; greater than 100 µM with RXF-631 renal. Besides, the results for the TGI in the assay with SNB-78 CNS and with XF 498 CNS were greater than 100 µM and 75.2 µM, respectively.
In the assay on MDA-N, `CC(C)OC(=S)Nc1ccc(Cl)c(/C=N/OC(C)(C)C)c1` had a TGI of 42 µM.
As to `Cc1ccc(C)c(N2C(=O)C(=O)C(c3nc4ccccc4o3)C(=O)C2=O)c1`, the TGI with DLD-1 colon is 65.6 µM; in the assay with DMS 114 small cell lung, greater than 100 µM; with DMS 273 small cell lung, greater than 100 µM; in the assay on LXFL 529 NSCLC it was greater than 100 µM; in the assay with M19-MEL melanoma it was greater than 100 µM; in the assay on RXF-631 renal, greater than 100 µM. In the assay with SNB-78 CNS, the TGI was greater than 100 µM.
In the case of `Cc1ccc([N+](=O)[O-])c2c(NCCNC(=O)c3cc(C(=O)NCCNc4ccnc5c(C)ccc([N+](=O)[O-])c45)n(C)n3)ccnc12`, the TGI with MDA-N was greater than 58 µM.
`CCC(C)CC(C)CC(C)/C=C(\C)C1=C(C)CC(C)(O)O1` (centres undefined): the TGI in the assay on DLD-1 colon, with DMS 114 small cell lung, in the assay with DMS 273 small cell lung, in the assay with LXFL 529 NSCLC, in the assay on M19-MEL melanoma and in the assay on RXF-631 renal was greater than 100 µM each time. In addition, the TGI with SNB-78 CNS is greater than 100 µM.
As to `Cc1ccc(NC(=O)C(=O)CC(=O)c2c(C)n([O-])c3ccccc3[n+]2=O)cc1C`, the TGI in the assay with DMS 273 small cell lung, with LXFL 529 NSCLC, with M19-MEL melanoma and in the assay with SNB-78 CNS was greater than 100 µM in each case.
Turning to `Cc1cccc(C(=O)O)c1C(=O)c1cccc2ccccc12`, the TGI with DLD-1 colon, in the assay with DMS 114 small cell lung, in the assay with DMS 273 small cell lung, with LXFL 529 NSCLC, with M19-MEL melanoma and in the assay on SNB-78 CNS was greater than 100 µM in each case.
Take `O=C(C(=O)n1ncc(Cl)c(Cl)c1=O)n1ncc(Cl)c(Cl)c1=O`: the TGI in the assay on DLD-1 colon is 32.4 µM; in the assay with DMS 114 small cell lung, greater than 62.8 µM; in the assay with DMS 273 small cell lung it was 44.5 µM; in the assay with LXFL 529 NSCLC it was 41.8 µM; in the assay on M19-MEL melanoma, 48.7 µM; with RXF-631 renal, greater than 100 µM. Besides, the values for the TGI in the assay on SNB-78 CNS and in the assay with XF 498 CNS were 88.2 µM and greater than 93 µM, respectively.
Turning to `COCCOc1cc(C)cc(/C=C(C)/C=C/C2=C(C)CCCC2(C)C)n1`, the TGI with DLD-1 colon, in the assay on DMS 114 small cell lung, with DMS 273 small cell lung, with LXFL 529 NSCLC, in the assay on M19-MEL melanoma and in the assay on RXF-631 renal was greater than 100 µM in each case. The TGI in the assay on SNB-78 CNS and in the assay with XF 498 CNS was greater than 100 µM in each case.
For the molecule `CCCCCC(=O)Nc1nc2nc[nH]c2c(=O)[nH]1`, the TGI in the assay on DLD-1 colon, in the assay on DMS 114 small cell lung, with DMS 273 small cell lung, in the assay on LXFL 529 NSCLC, in the assay with M19-MEL melanoma and with SNB-78 CNS was greater than 100 µM each time. In addition, in the assay on XF 498 CNS, the TGI is greater than 100 µM.
Consider `O=C(O)/C(Cc1cn[nH]n1)=N\O`, for which the TGI in the assay on MDA-N was greater than 100 µM.
Same read-out and setting: the result for `CN1Cc2ccccc2/C=C\c2ccccc21` reads greater than 100 µM.
As for `CS(=O)(=O)OCCCNCCCOS(C)(=O)=O`, the TGI came out at 9100 µM in the assay on DLD-1 colon; 3630 µM in the assay on DMS 114 small cell lung; 1150 µM in the assay on DMS 273 small cell lung; 5560 µM with M19-MEL melanoma; 6520 µM with P388 leukemia; 8330 µM in the assay on P388/ADR leukemia. The values for the TGI in the assay with SNB-78 CNS and with XF 498 CNS were 8530 µM and 2600 µM, respectively.
In the assay on MDA-N, `O=[N+]([O-])c1ccc(Cl)c(CNc2ncnc3c2ncn3C2CCCCO2)c1` (centres undefined) had a TGI of 27 µM.
For the molecule `COc1ccc2nc(C(=O)c3ccccc3)c(C)cc2c1`, the TGI in the assay with DLD-1 colon was greater than 66.7 µM; in the assay with DMS 114 small cell lung it was 20.5 µM; with DMS 273 small cell lung, 63.5 µM; in the assay on LXFL 529 NSCLC, greater than 100 µM; in the assay with M19-MEL melanoma it was greater than 37.7 µM; in the assay on RXF-631 renal it was greater than 100 µM. Moreover, the TGI was greater than 100 µM in the assay on SNB-78 CNS and 19.9 µM in the assay with XF 498 CNS.
`COC(=O)Nc1nc2ccccc2[nH]1` returned a TGI in the assay on MDA-N of 11.6 µM.
With `N#Cc1ccccc1NC(=O)C(=O)C1NC(=S)NC1=O` (centres undefined), the TGI with DLD-1 colon, with DMS 114 small cell lung, in the assay on LXFL 529 NSCLC, with M19-MEL melanoma and in the assay on XF 498 CNS was greater than 100 µM each time.
`Nc1nc2c(C(=O)NCc3cccs3)nnn2c2cccc(Cl)c12`: the TGI in the assay on MDA-N is greater than 100 µM.
As to `CC1OC(=O)C(O)=C1O` (centres undefined), the TGI in the assay on DMS 273 small cell lung, in the assay on LXFL 529 NSCLC, in the assay on M19-MEL melanoma, with SNB-78 CNS and in the assay on XF 498 CNS was greater than 100 µM each time.
Turning to `CC(C)c1cc(C(C)C)c(S(=O)(=O)N=[N+]=[N-])c(C(C)C)c1`, the TGI with DLD-1 colon, in the assay on DMS 273 small cell lung, in the assay on LXFL 529 NSCLC, in the assay on M19-MEL melanoma, in the assay with RXF-631 renal and in the assay with XF 498 CNS was greater than 100 µM each time.
In the case of `COc1ccc(C2=Nc3ccccc3SC(C)C2)cc1OC` (centres undefined), the TGI in the assay with DMS 114 small cell lung is 34.8 µM; with DMS 273 small cell lung, 34.8 µM; in the assay with LXFL 529 NSCLC, 32 µM; in the assay on RXF-631 renal it was greater than 100 µM; in the assay on SNB-78 CNS, 66.7 µM; with XF 498 CNS it was 32.8 µM.
In turn, `COc1cc(/C=C/c2ccc(O)c(OC)c2)cc(OC)c1` showed a TGI in the assay on MDA-N of 46 µM.
In the case of `NC1c2ccccc2Nc2ccccc21`, the TGI in the assay on DLD-1 colon stood at 17.1 µM; in the assay on DMS 114 small cell lung it was 12.5 µM; in the assay on DMS 273 small cell lung, 25.7 µM; with LXFL 529 NSCLC, 17.5 µM; in the assay with M19-MEL melanoma, 13.9 µM; in the assay on SNB-78 CNS, 37.3 µM. In addition, the TGI with XF 498 CNS came out at 11.9 µM.
Turning to `Cc1ccc2nc(NC(=O)C(=O)C(C#N)c3ccc(Cl)cc3)sc2c1` (centres undefined), the TGI in the assay with DMS 114 small cell lung, with DMS 273 small cell lung, in the assay on LXFL 529 NSCLC, with M19-MEL melanoma, in the assay on SNB-78 CNS and in the assay on XF 498 CNS was greater than 50 µM each time.
